Reference: patent US20200247800A1, “SUBSTITUTED BICYCLIC HETEROCYCLIC COMPOUNDS AS NADPH OXIDASE INHIBITORS” (Glenmark Pharmaceuticals S.A., priority 2017, published 2020)

Target: T1, human NOX4 (Homo sapiens, UniProt Q9NPH5)
T1 construct: expressed in transfected cells; membrane fraction used
T1 sequence (Q9NPH5 1-578): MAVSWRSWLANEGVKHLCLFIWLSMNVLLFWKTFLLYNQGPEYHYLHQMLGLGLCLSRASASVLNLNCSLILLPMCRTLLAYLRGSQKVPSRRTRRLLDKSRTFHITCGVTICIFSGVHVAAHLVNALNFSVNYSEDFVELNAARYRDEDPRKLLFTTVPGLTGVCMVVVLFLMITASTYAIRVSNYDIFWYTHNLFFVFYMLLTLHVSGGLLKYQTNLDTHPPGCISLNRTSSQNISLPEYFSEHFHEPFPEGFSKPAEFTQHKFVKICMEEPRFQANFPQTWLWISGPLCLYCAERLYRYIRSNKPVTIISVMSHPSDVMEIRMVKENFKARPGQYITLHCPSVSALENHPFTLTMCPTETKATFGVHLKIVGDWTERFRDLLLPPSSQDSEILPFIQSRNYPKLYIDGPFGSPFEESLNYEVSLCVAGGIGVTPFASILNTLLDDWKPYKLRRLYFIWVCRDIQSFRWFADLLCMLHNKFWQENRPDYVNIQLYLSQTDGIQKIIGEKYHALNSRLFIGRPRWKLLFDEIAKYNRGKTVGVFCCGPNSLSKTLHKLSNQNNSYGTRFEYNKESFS
T1 sequence (P13498 1-195 partner): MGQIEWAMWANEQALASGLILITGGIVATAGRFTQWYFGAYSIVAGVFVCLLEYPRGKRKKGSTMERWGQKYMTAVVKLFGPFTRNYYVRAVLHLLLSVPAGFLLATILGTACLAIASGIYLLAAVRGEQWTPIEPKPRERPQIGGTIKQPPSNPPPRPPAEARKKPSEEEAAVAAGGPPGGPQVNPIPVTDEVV
Experiment: Cell free membrane based in vitro NOX4 assay: H2O2 production by membranes expressing human NOX4, measured with Amplex Red
Assay type: biochemical
Conditions: for inhibition at 1 µM: 1.0 μM compound, read-out: Percentage inhibition at 1.0 μM; for inhibition at 10 µM: 10.0 μM compound, read-out: Percentage inhibition at 10.0 μM; for IC50: class symbols
Summary of the method: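 Membranes from HEK cells stably overexpressing human NOX4 were preincubated 20 min with inhibitor in pH 7.4 HEPES buffer containing HRP and Amplex Red, then NADPH was added. H2O2 was followed for 10 min by fluorescence (ex 544/em 590 nm). IC50 from nonlinear regression of % maximal uninhibited response.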

| Compound | inhibition at 1 µM [%] | inhibition at 10 µM [%] | IC50 [nM] |
| --- | --- | --- | --- |
| CCc1nn(C)c2[nH]c(-c3ccc(OC)cc3Cl)c(O)c(=O)c12 [Example 73, 6-(2-Chloro-4-methoxyphenyl)-3-ethyl-5-hydroxy-1-methyl-1H-pyrazolo[3,4-b]pyridin-4(7H)-one] | 79.8 | 73.1 | 50 to 100 |
| Cc1nn(C(C)C)c2[nH]c(-c3c(F)cccc3F)c(O)c(=O)c12 [Example 74, 6-(2,6-Difluorophenyl)-5-hydroxy-1-isopropyl-3-methyl-1H-pyrazolo[3,4-b]pyridin-4(7H)-one] | 91.1 | 90.3 | 50 to 100 |
| CC(C)c1c2c(=O)c(O)c(-c3ccccc3Cl)[nH]c2nn1C [Example 75, 6-(2-Chlorophenyl)-5-hydroxy-3-isopropyl-2-methyl-2H-pyrazolo[3,4-b]pyridin-4(7H)-one] | 1.59 | 12.5 | – |
| Cc1nn(Cc2ccccc2)c2[nH]c(-c3c(F)cccc3F)c(O)c(=O)c12 [Example 76, 1-Benzyl-6-(2,6-difluorophenyl)-5-hydroxy-3-methyl-1H-pyrazolo[3,4-b]pyridin-4(7H)-one] | 95 | 93.5 | < 50 |
| COc1ccc(-c2[nH]c3c(c(C)nn3Cc3ccccc3)c(=O)c2O)c(F)c1 [Example 77, 1-Benzyl-6-(2-fluoro-4-methoxyphenyl)-5-hydroxy-3-methyl-1H-pyrazolo[3,4-b]pyridin-4(7H)-one] | 88.9 | 72.1 | 100 to 150 |
| NC(=O)c1nsc2c(=O)c(O)c(-c3ccccc3Cl)[nH]c12 [Example 78, 5-(2-Chlorophenyl)-6-hydroxy-7-oxo-4,7-dihydroisothiazolo[4,5-b]pyridine-3-carboxamide] | 55.3 | 89.3 | > 150 |
| CCCn1nc(C)c2c(=O)c(O)c(-c3c(F)cccc3F)[nH]c21 [Example 79, 6-(2,6-Difluorophenyl)-5-hydroxy-3-methyl-1-propyl-1H-pyrazolo[3,4-b]pyridin-4(7H)-one] | 78.4 | 81.6 | 100 to 150 |
| Cc1nn(CCN(C)C)c2[nH]c(-c3ccccc3Cl)c(O)c(=O)c12 [Example 80, 6-(2-Chlorophenyl)-1-(2-(dimethylamino)ethyl)-5-hydroxy-3-methyl-1H-pyrazolo[3,4-b]pyridin-4(7H)-one] | 94 | 97.5 | 50 to 100 |
| CCn1nc(C)c2c(=O)c(O)c(-c3cc(F)ccc3F)[nH]c21 [Example 81, 6-(2,5-Difluorophenyl)-1-ethyl-5-hydroxy-3-methyl-1H-pyrazolo[3,4-b]pyridin-4(7H)-one] | 93.3 | 81.5 | > 150 |
| CCCn1nc(C)c2c(=O)c(O)c(-c3ccc(OC)cc3F)[nH]c21 [Example 82, 6-(2-Fluoro-4-methoxyphenyl)-5-hydroxy-3-methyl-1-propyl-1H-pyrazolo[3,4-b]pyridin-4(7H)-one] | 87.5 | – | 50 to 100 |
| Cc1nn(C)c2c(=O)c(O)c(-c3ccccc3Cl)[nH]c12 [Example 83, 5-(2-Chlorophenyl)-6-hydroxy-1,3-dimethyl-1H-pyrazolo[4,3-b]pyridin-7(4H)-one] | 74.4 | 99 | > 150 |
| Cc1nn(Cc2ccc(F)cc2)c2[nH]c(-c3c(F)cccc3F)c(O)c(=O)c12 [Example 84, 6-(2,6-Difluorophenyl)-1-(4-fluorobenzyl)-5-hydroxy-3-methyl-1H-pyrazolo[3,4-b]pyridin-4(7H)-one] | 80.2 | 88.6 | > 150 |
| Cn1nc(C(F)F)c2c(=O)c(O)c(-c3ccccc3Cl)[nH]c21 [Example 85, 6-(2-Chlorophenyl)-3-(difluoromethyl)-5-hydroxy-1-methyl-1H-pyrazolo[3,4-b]pyridin-4(7H)-one] | 72.5 | 88 | > 150 |
| Cn1nc(C(F)F)c2c(=O)c(O)c(-c3c(F)cccc3F)[nH]c21 [Example 86, 3-(Difluoromethyl)-6-(2,6-difluorophenyl)-5-hydroxy-1-methyl-1H-pyrazolo[3,4-b]pyridin-4(7H)-one] | 74.5 | 89.8 | > 150 |
| Cc1nn(C2CC2)c2[nH]c(-c3c(F)cccc3F)c(O)c(=O)c12 [Example 87, 1-Cyclopropyl-6-(2,6-difluorophenyl)-5-hydroxy-3-methyl-1H-pyrazolo[3,4-b]pyridin-4(7H)-one] | 78.2 | 88.5 | 100 to 150 |
| Cc1nn(CCN2CCOCC2)c2[nH]c(-c3c(F)cccc3F)c(O)c(=O)c12 [Example 88, 6-(2,6-Difluorophenyl)-5-hydroxy-3-methyl-1-(2-morpholinoethyl)-1H-pyrazolo[3,4-b]pyridin-4(7H)-one] | 100 | 100 | 50 to 100 |
| Cc1nn(CCN(C)C)c2[nH]c(-c3c(F)cccc3F)c(O)c(=O)c12 [Example 89, 6-(2,6-Difluorophenyl)-1-(2-(dimethylamino)ethyl)-5-hydroxy-3-methyl-1H-pyrazolo[3,4-b]pyridin-4(7H)-one] | 100 | 100 | 50 to 100 |

The next lines start with the values.

| inhibition at 1 µM [%] | inhibition at 10 µM [%] | IC50 [nM] | Compound |
| --- | --- | --- | --- |
| 100 | 100 | 50 to 100 | COCCn1nc(C)c2c(=O)c(O)c(-c3c(F)cccc3F)[nH]c21 [Example 90, 6-(2,6-Difluorophenyl)-5-hydroxy-1-(2-methoxyethyl)-3-methyl-1H-pyrazolo[3,4-b]pyridin-4(7H)-one] |
| 98.3 | 87.1 | 50 to 100 | CC(C)c1nn(C)c2[nH]c(-c3c(F)cccc3F)c(O)c(=O)c12 [Example 91, 6-(2,6-Difluorophenyl)-5-hydroxy-3-isopropyl-1-methyl-1H-pyrazolo[3,4-b]pyridin-4(7H)one] |
| 75.6 | 76.5 | 100 to 150 | COCCCn1nc(C)c2c(=O)c(O)c(-c3c(F)cccc3F)[nH]c21 [Example 92, 6-(2,6-Difluorophenyl)-5-hydroxy-1-(3-methoxypropyl)-3-methyl-1H-pyrazolo[3,4-b]pyridin-4(7H)-one] |
| 69.1 | 79.6 | > 150 | Cc1ccc(F)c(-c2[nH]c3c(c(C)nn3C3CC3)c(=O)c2O)c1F [Example 93, 1-Cyclopropyl-6-(2,6-difluoro-3-methylphenyl)-5-hydroxy-3-methyl-1H-pyrazolo[3,4-b]pyridin-4(7H)-one] |
| 72.5 | 80 | > 150 | Cc1nn(C2CC2)c2[nH]c(-c3c(F)cc(F)cc3F)c(O)c(=O)c12 [Example 94, 1-Cyclopropyl-5-hydroxy-3-methyl-6-(2,4,6-trifluorophenyl)-1H-pyrazolo[3,4-b]pyridin-4(7H)-one] |
| 71.1 | 62.6 | > 150 | CCn1nc(C)c2c(=O)c(O)c(-c3cccc(F)c3F)[nH]c21 [Example 95, 6-(2,3-Difluorophenyl)-1-ethyl-5-hydroxy-3-methyl-1H-pyrazolo[3,4-b]pyridin-4(7H)-one] |
| 67.3 | 72.3 | > 150 | Cc1nn(C2CC2)c2[nH]c(-c3cccc(F)c3F)c(O)c(=O)c12 [Example 96, 1-Cyclopropyl-6-(2,3-difluorophenyl)-5-hydroxy-3-methyl-1H-pyrazolo[3,4-b]pyridin-4(7H)-one] |
| 76.7 | 78.2 | > 150 | CCn1nc(C)c2c(=O)c(O)c(-c3c(F)cc(F)cc3F)[nH]c21 [Example 97, 1-Ethyl-5-hydroxy-3-methyl-6-(2,4,6-trifluorophenyl)-1H-pyrazolo[3,4-b]pyridin-4(7H)-one] |
| 86.4 | 93.4 | 50 to 100 | O=c1c(O)c(-c2c(F)cccc2F)[nH]c2[nH]nc(C(F)(F)F)c12 [Example 98, 6-(2,6-Difluorophenyl)-5-hydroxy-3-(trifluoromethyl)-1H-pyrazolo[3,4-b]pyridin-4(7H)-one] |
| 71.3 | 85.1 | > 150 | CCn1nc(C(F)F)c2c(=O)c(O)c(-c3c(F)cccc3F)[nH]c21 [Example 99, 3-(Difluoromethyl)-6-(2,6-difluorophenyl)-1-ethyl-5-hydroxy-1H-pyrazolo[3,4-b]pyridin-4(7H)-one] |
| 66.7 | 84.8 | > 150 | CCn1nc(C(F)(F)F)c2c(=O)c(O)c(-c3c(F)cccc3F)[nH]c21 [Example 100, 6-(2,6-Difluorophenyl)-1-ethyl-5-hydroxy-3-(trifluoromethyl)-1H-pyrazolo[3,4-b]pyridin-4(7H)-one] |
